ChEMBL document CHEMBL5465560, “Selectivity Literature for EUbOPEN Chemogenomic Library” (2024)
One block for each molecule: values may come before it.

Key:
[1] = biological target: T1, Phosphorylase b kinase gamma catalytic chain, liver/testis isoform (Homo sapiens) (UniProt P15735); experiment: Selectivity interaction (ActivX KiNativ screen (kinase selectivity in THP-1 cell lysates)) EUB0000639a PHKG2; format: subcellular; details: lysate
T1 sequence (whole entry): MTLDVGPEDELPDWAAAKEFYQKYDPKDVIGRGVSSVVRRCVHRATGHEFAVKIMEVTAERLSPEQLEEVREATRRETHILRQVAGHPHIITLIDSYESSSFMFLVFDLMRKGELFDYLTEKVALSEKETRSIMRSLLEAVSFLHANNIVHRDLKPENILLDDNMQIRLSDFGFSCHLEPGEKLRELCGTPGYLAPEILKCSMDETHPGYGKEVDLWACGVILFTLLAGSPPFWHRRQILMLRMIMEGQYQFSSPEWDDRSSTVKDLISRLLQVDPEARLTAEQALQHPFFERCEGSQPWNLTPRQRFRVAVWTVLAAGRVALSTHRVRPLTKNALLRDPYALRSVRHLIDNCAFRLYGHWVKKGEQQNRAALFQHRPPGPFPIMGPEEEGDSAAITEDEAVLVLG

[2] = biological target: T2, Tyrosine-protein kinase Mer (Homo sapiens) (UniProt Q12866); experiment: Selectivity interaction (KinomeScan (DiscoverX)) EUB0000655a MERTK; details: at 10 µM
T2 sequence (whole entry): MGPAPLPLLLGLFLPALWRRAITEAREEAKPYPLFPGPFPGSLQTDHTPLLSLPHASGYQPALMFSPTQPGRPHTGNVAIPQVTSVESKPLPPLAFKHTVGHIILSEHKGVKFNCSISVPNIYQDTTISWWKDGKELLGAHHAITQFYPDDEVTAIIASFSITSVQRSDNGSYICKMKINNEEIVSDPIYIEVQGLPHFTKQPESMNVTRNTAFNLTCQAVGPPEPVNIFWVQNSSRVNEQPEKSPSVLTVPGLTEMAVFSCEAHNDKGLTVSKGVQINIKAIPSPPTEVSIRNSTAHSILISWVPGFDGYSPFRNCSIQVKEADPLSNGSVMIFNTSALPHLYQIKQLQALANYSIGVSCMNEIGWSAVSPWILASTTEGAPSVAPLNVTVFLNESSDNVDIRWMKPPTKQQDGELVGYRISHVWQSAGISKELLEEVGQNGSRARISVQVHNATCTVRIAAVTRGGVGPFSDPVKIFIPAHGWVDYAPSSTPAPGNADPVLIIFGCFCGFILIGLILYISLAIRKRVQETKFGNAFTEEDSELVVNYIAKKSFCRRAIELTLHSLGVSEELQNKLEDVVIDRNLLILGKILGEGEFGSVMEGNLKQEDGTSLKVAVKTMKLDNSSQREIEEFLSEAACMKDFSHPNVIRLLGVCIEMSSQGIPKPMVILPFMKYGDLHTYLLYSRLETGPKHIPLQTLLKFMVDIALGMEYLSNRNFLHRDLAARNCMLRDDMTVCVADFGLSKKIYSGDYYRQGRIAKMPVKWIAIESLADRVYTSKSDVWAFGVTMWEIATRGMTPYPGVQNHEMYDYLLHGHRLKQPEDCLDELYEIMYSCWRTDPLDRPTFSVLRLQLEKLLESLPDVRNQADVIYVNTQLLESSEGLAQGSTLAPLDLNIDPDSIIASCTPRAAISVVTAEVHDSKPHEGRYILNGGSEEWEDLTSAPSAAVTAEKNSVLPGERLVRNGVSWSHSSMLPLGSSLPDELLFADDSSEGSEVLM

[3] = biological target: T3, Mitogen-activated protein kinase kinase kinase 6 (Homo sapiens) (UniProt O95382); experiment: Selectivity interaction (ActivX KiNativ screen (ex vivo kinase selectivity in human PBMCs)) EUB0001619a MAP3K6; format: cell-based; details: PBMC, at 1 µM
T3 sequence (whole entry): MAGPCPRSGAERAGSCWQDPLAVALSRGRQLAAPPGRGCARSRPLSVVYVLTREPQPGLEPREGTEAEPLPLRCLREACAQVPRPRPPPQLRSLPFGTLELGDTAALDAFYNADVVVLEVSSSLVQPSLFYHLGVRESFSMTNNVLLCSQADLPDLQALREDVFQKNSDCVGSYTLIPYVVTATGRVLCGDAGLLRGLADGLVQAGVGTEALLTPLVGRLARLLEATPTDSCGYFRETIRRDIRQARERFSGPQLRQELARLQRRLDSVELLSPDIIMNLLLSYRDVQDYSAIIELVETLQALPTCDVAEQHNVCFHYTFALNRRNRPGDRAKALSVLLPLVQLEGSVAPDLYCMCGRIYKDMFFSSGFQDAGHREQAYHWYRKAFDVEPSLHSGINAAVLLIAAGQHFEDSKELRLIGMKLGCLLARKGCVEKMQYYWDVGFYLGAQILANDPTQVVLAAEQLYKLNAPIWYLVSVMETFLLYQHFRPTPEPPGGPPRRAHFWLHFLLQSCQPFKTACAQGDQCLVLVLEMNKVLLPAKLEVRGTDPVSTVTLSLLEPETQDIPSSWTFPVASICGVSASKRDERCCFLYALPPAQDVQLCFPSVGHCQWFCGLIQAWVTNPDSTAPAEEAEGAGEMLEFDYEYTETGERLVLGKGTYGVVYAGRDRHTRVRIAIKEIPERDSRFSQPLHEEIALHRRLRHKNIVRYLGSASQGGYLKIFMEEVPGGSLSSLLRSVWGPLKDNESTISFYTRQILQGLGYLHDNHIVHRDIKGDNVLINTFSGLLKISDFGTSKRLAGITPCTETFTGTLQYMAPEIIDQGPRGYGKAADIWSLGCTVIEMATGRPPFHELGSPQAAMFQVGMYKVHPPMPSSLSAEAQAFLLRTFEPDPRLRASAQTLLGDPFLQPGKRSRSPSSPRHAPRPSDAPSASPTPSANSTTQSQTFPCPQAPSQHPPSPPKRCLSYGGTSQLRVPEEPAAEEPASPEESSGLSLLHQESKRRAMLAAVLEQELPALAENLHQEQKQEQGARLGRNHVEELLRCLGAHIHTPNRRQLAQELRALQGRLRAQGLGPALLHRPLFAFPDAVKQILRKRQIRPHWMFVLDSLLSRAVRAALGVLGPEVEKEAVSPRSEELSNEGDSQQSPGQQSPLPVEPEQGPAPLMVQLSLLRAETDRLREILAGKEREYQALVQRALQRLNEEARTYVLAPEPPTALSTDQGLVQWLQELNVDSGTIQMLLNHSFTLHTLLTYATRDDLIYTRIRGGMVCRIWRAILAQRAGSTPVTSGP

[4] = biological target: Tyrosine-protein kinase FRK (Homo sapiens) (UniProt P42685); experiment: Selectivity interaction (KinomeScan (DiscoverX)) EUB0001619a FRK; details: at 1 µM
Sequence of Tyrosine-protein kinase FRK (Homo sapiens) (P42685 whole entry): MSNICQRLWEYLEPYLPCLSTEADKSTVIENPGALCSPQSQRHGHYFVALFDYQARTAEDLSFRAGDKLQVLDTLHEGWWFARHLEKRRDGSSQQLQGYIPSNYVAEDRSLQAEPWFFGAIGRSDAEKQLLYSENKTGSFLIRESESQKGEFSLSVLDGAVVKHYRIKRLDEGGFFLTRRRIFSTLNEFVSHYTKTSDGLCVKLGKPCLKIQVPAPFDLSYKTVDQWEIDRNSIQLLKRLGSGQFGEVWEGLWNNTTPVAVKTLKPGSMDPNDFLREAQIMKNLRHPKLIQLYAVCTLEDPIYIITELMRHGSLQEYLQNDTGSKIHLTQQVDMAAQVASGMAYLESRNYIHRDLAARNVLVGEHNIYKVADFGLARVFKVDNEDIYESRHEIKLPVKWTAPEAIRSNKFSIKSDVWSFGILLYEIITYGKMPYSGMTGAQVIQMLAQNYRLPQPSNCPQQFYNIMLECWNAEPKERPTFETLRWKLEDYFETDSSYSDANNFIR

% of inhibition ([1]; at 0.01 µM): 15.9%
% of inhibition ([1]; at 0.04 µM): 3.7%
% of inhibition ([1]; at 0.2 µM): 0.2%
% of inhibition ([1]; at 1 µM): -8.2%
% of inhibition ([1]; at 5 µM): 7%
SMILES: CC[C@@H]1[C@H](F)C(=O)N[C@@H]1COc1nccc2cc(C(N)=O)c(OC)cc12 [ZIMLOVISERTIB]

SMILES: CN(C)CCOc1ccc(-c2nc(-c3ccncc3)c(-c3ccc4c(c3)CC/C4=N\O)[nH]2)cc1
% of control [2]: 87%

SMILES: N#Cc1cccc(-c2c[nH]c3ncnc(N4CCOCC4)c23)c1
% of inhibition [3]: 21%
% of control [4]: 88%
